Patent US20260335314A1, “CRYSTALLINE SALTS OR AMORPHOUS FORMS OF 2-((1H-PYRAZOL-3-YL)METHYL)-6-((6-AMINOPYRIDIN-2-YL)METHYL)-4-METHYL-4,6-DIHYDRO -5H-THIAZOLO[5',4':4,5]PYRROLO[2,3-D]PYRIDAZIN-5-ONE” (Agios Pharmaceuticals, Inc., priority 2023, published 2026)
Values after ≈ are worked out from the molar mass of the structure shown.

Experiments:
[1] = pH solubility in buffers; assay type: physicochemical; settings: for pH (24 h): pH of solution at 24 h
Experimental: (§1) Solubility samples were prepared by weighing about 10 mg of each salt and adding 1 mL of media and vortexed briefly to obtain suspensions. […] For such instances, the solubility is calculated as greater than (>).
(§2) The sample vials were capped and wrapped in aluminum foil, and placed on a shaker at 37° C. The shaker was set at about 100 rpm and vials were removed at specified time points. The vials were observed, and the supernatants were transferred to Eppendorf tubes and centrifuged at 3K for 10 minutes. The clear supernatants were transferred to HPLC vials. The samples were diluted prior to HPLC analysis using the dilution media by 2× or used without dilution. pH was measured of the 24 hour timepoint after centrifugation using a micro pH probe.
(§3) • pH 2 buffer USP: Mixed 50 mL of 0.2M potassium chloride and 13 mL 0.2M HCl, diluted to 200 mL with water. • pH 4.5 buffer USP: 5.44 g of potassium dihydrogen phosphate was diluted to 1000 mL with water. • pH 6.8 buffer USP: Mixed 50 mL of 0.2M potassium phosphate and 22.4 mL 0.2M sodium hydroxide. Diluted with water to 200 mL. • SGF: 2.0109 g of NaCl was dissolved in water, added 7 mL of conc. HCl and diluted to 1 L. • FeSSIF: 4.0321 g of NaOH and 11.8726 g of NaCl were dissolved in water, added 8.65 mL of glacial acetic acid, adjusted the pH to 5.0 and diluted to 1 L. • FaSSIF: 0.4247 g of NaOH, 3.9548 g of sodium phosphate monobasic monohydrate and 6.1900 g of NaCl were dissolved in water, adjusted the pH to 6.5 and diluted to 1 L.
At each time point, the solution was analyzed by HPLC and residue was vacuum dried and analyzed by XRPD. The pH of the solution was measured at 24 hours.

[2] = Physicochemical properties of Form A (summary)
[3] = Dynamic vapor sorption (moisture uptake); assay type: physicochemical; settings: 25° C., from 5% to 95% relative humidity
Experimental: Dynamic Vapor Sorption (DVS) was carried out using a TA Instruments Q5000 Dynamic Vapor Sorption analyzer. The instrument was calibrated with standard weights and a sodium bromide standard for humidity. Approximately 10-25 mg of sample was loaded into a metal-coated quartz pan for analysis. […] The movement from one step to the next occurred either after satisfying the equilibrium criterion of 0.01% weight change or, if the equilibrium criterion was not met, after one hour. The percent weight change values were calculated using Microsoft Excel®.

[4] = Kinetic solubility in biorelevant media; assay type: physicochemical
Experimental: as §1, §2
as §3, with “adjusted the pH to 5.0 and diluted to 1 L. • FaSSIF:” left out
Kinetic solubility was determined in biorelevant media. At each time point, the solution was analyzed by HPLC. The solid residue was analyzed by XRPD at selected time points. The pH of the solution was measured at 24 hours.

[5] = Pharmacokinetics / absolute bioavailability in male Sprague Dawley rats; assay type: in vivo
Experimental: Twenty-one (21) male Sprague Dawley rats (purchased from Shanghai Laboratory Animal Center Co., Ltd., Shanghai, China) were randomized into 7 groups (3 animals per group). The animals fasted overnight, the forms of Compound 1 shown in Table 7 were administered by oral gavage, and the animals were fed 4 hours post-dose.
Blood was serially collected from each animal at 0 (pre-dose), 0.083, 0.25, 0.5, 1, 2, 4, 8, and 24 h post-dose. For each collection, the animal was restrained manually, and approximately 150 μL of blood sample was collected via the tail vein into K2EDTA tubes. Plasma samples were stored at approximately −70° C. until analysis.
To enable the calculation of absolute bioavailability, Compound 1 was formulated as a solution in 10% N-methyl-2-pyrrolidone, 10% Solutol HS 15, and 80% saline and administered at 1 mg/kg as intravenous (IV) bolus dose to a separate group of male Sprague Dawley rats, and blood samples were collected at similar timepoints to those shown above. Further, plasma samples were obtained from the collected samples and stored at approximately −70° C. until analysis.
The concentration of Compound 1 in the plasma samples was determined by LC-MS/MS analysis.
A 20 μL aliquot of each plasma sample was mixed with 200 μL of acetonitrile containing glipizide as an internal standard (40 ng/mL). The resulting mixture was vortexed at 1500 rpm for 2 min and centrifuged at 5800 rpm for 10 min. A 1 μL sample from the supernatant was injected into LC-MS/MS.
LC-MS/MS analysis was conducted on a UPLC/MS-MS (API 6500+) system under the conditions outlined in Table 8
The absolute bioavailability of each form of Compound 1 was determined by dividing the AUCinf of the form in question by the AUCinf obtained historical data by IV administration of Compound 1.

[6] = Stability study of Form A (storage); assay type: physicochemical

Which results are given for `Cn1c2nc(Cc3cc[nH]n3)sc2c2cnn(Cc3cccc(N)n3)c(=O)c21` [Form A]?
solubility at 2 h ([1]; 0.1 n hcl, 2 h, 37 °C): 1970 µg/mL (≈ 5020 µM); solubility at 24 h ([1]; 0.1 n hcl, 24 h, 37 °C): 1480 µg/mL (≈ 3770 µM); solubility ([1]; pH 2 (USP), 2 h, 37 °C, 120 min): 400 µg/mL (≈ 1020 µM); solubility ([1]; pH 2 (USP), 24 h, 37 °C, 1440 min): 300 µg/mL (≈ 764 µM); pH (24 h) ([1]; pH 2 (USP)): 2.06; solubility ([1]; pH 4.5 (USP), 2 h, 37 °C, 120 min): 60 µg/mL (≈ 153 µM); solubility ([1]; pH 4.5 (USP), 24 h, 37 °C, 1440 min): 50 µg/mL (≈ 127 µM); pH (24 h) ([1]; pH 4.5 (USP)): 4.32; solubility ([1]; pH 6.8 (USP), 2 h, 37 °C, 120 min): 40 µg/mL (≈ 102 µM); solubility ([1]; pH 6.8 (USP), 24 h, 37 °C, 1440 min): 70 µg/mL (≈ 178 µM); pH (24 h) ([1]; pH 6.8 (USP)): 5.63; stability in solvent systems ([2]; especially containing water): stability in multiple solvent systems; stability in humidity ([2]; relative humidity): at least 20 % RH; particle size ([2]; under microscope): below 20 μm; stability in humidity (water activity) ([2]; water activity): ≥ 0.2; moisture uptake (DVS) [3]: about 0.08%; solubility ([4]; FaSSIF pH 6.5, 10 min, 37 °C, 10 min): 120 µg/mL (≈ 306 µM); solubility ([4]; FaSSIF pH 6.5, 30 min, 37 °C, 30 min): 120 µg/mL (≈ 306 µM); solubility ([4]; FaSSIF pH 6.5, 1 h, 37 °C, 60 min): 110 µg/mL (≈ 280 µM); solubility ([4]; FaSSIF pH 6.5, 2 h, 37 °C, 120 min): 160 µg/mL (≈ 408 µM); solubility ([4]; FaSSIF pH 6.5, 4 h, 37 °C, 240 min): 170 µg/mL (≈ 433 µM); solubility ([4]; FaSSIF pH 6.5, 24 h, 37 °C, 1440 min): 180 µg/mL (≈ 459 µM); pH (24 h) ([4]; FaSSIF pH 6.5, pH of solution at 24 h): 3.91; solubility ([4]; FeSSIF pH 5.0, 10 min, 37 °C, 10 min): 550 µg/mL (≈ 1400 µM); solubility ([4]; FeSSIF pH 5.0, 30 min, 37 °C, 30 min): 100 µg/mL (≈ 255 µM); solubility ([4]; FeSSIF pH 5.0, 1 h, 37 °C, 60 min): 230 µg/mL (≈ 586 µM); solubility ([4]; FeSSIF pH 5.0, 2 h, 37 °C, 120 min): 70 µg/mL (≈ 178 µM); solubility ([4]; FeSSIF pH 5.0, 4 h, 37 °C, 240 min): 70 µg/mL (≈ 178 µM); solubility ([4]; FeSSIF pH 5.0, 24 h, 37 °C, 1440 min): 30 µg/mL (≈ 76.4 µM); pH (24 h) ([4]; FeSSIF pH 5.0, pH of solution at 24 h): 5.74; pH (24 h) ([4]; SGF pH 1.2, pH of solution at 24 h): 0.87; solubility at 10 min ([4]; sgf, pH 1.2, SGF pH 1.2, 10 min, 37 °C): 2850 µg/mL (≈ 7260 µM); solubility at 0.5 h ([4]; sgf, pH 1.2, SGF pH 1.2, 30 min, 37 °C): 4960 µg/mL (≈ 12600 µM); solubility at 1 h ([4]; sgf, pH 1.2, SGF pH 1.2, 1 h, 37 °C): 2840 µg/mL (≈ 7240 µM); solubility at 2 h ([4]; sgf, pH 1.2, SGF pH 1.2, 2 h, 37 °C): 3240 µg/mL (≈ 8260 µM); solubility at 4 h ([4]; sgf, pH 1.2, SGF pH 1.2, 4 h, 37 °C): 3770 µg/mL (≈ 9610 µM); solubility at 24 h ([4]; sgf, pH 1.2, SGF pH 1.2, 24 h, 37 °C): 2880 µg/mL (≈ 7340 µM); absolute bioavailability, comparison with other forms ([5]; oral gavage, 10 mg/kg): higher than the measured bioavailability of the other forms of Compound 1; AUCinf ([5]; oral gavage, 10 mg/kg, fasted overnight, plasma): 9426 ng·h/mL; Absolute % F ([5]; oral gavage, 10 mg/kg, vs historical IV AUCinf, 10 mg/kg): 60%; plasma concentration-time profiles and pharmacokinetic parameters ([5]; summary statement): favorable plasma concentration-time profiles and pharmacokinetic parameters; degradation ([6]; one month under 25±2° C./60±5% RH): No degradation was observed; degradation ([6]; one month under 40±2° C./75±5% RH): No degradation was observed
